Measured values reported in ChEMBL document CHEMBL1201862, “PubChem BioAssay data set” (2004).
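These data come from cells grown in 96-well plates and exposed to compound for 48 hours at five concentrations. Abbreviation: GI50, concentration required for 50% inhibition of growth.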 Calls of active or inactive are those of the source. Rule as the data show it: active = GI50 up to about 1.1 µM and inactive = higher.

How the values were obtained:
Assay in all cases: NCI anticancer screen, dose series, 48 h
[1] = test system: A549
[2] = test system: ACHN
[3] = test system: BT-549
[4] = test system: CAKI-1
[5] = test system: CCRF-CEM
[6] = test system: DU-145
[7] = test system: HCC 2998
[8] = test system: LOX IMVI
[9] = test system: MDA-MB-435
[10] = test system: Malme-3M
[11] = test system: NCI-H460
[12] = test system: NCI-H522
[13] = test system: SK-MEL-5
[14] = test system: SK-OV-3
[15] = test system: SN12C
[16] = test system: SR
[17] = test system: TK-10
[18] = test system: U-251
[19] = test system: SNB-75

SMILES | GI50 [1] | GI50 [2] | GI50 [3] | GI50 [4] | GI50 [5] | GI50 [6] | GI50 [7] | GI50 [8] | GI50 [9] | GI50 [10] | GI50 [11] | GI50 [12] | GI50 [13] | GI50 [14] | GI50 [15] | GI50 [16] | GI50 [17] | GI50 [18] | GI50 [19]
CC(C)(C)OC(=O)NC1CCCCC1NC(=O)C(=O)NC1CCCCC1NC(=O)OC(C)(C)C (centres undefined) | > 100 µM (inactive) | 39.1 µM (inactive) | 53.5 µM (inactive) | 43 µM (inactive) | > 100 µM (inactive) | > 100 µM (inactive) | > 100 µM (inactive) | > 100 µM (inactive) | > 100 µM (inactive) | > 100 µM (inactive) | > 100 µM (inactive) | 66.5 µM (inactive) | > 100 µM (inactive) | 44.2 µM (inactive) | > 100 µM (inactive) | > 100 µM (inactive) | 37.6 µM (inactive) | 25.9 µM (inactive) | 
Cc1c(N)nc([C@H](CC(N)=O)NC[C@H](N)C(N)=O)nc1C(=O)N[C@H](C(=O)N[C@H](C)[C@@H](O)CC(=O)N[C@H](C(=O)NC(O[C@@H]1O[C@@H](C)[C@@H](N)[C@@H](O)[C@H]1O)C(O)c1nc(-c2nc(C(=O)NCCC[S+](C)C)cs2)cs1)[C@@H](C)O)[C@H](O[C@@H]1O[C@@H](CO)[C@@H](O)[C@H](O)[C@@H]1O[C@H]1O[C@H](CO)[C@@H](O)[C@H](OC(N)=O)[C@@H]1O)c1c[nH]cn1 (some centres undefined) | 19.7 µM (inactive) | 0.773 µM (active) | > 100 µM (inactive) | 73.8 µM (inactive) | > 100 µM (inactive) | > 100 µM (inactive) | 8.39 µM (inactive) | 15.2 µM (inactive) | > 100 µM (inactive) | 37.2 µM (inactive) | 2.79 µM (inactive) | 15.1 µM (inactive) | 28.8 µM (inactive) | > 100 µM (inactive) | > 100 µM (inactive) | 0.0109 µM (active) | > 100 µM (inactive) | 92.5 µM (inactive) | 18.3 µM (inactive)
COc1ccccc1/[N+]([O-])=C/c1ccccc1OC(=S)S | > 100 µM (inactive) | 49.3 µM (inactive) | 25.9 µM (inactive) | 58.9 µM (inactive) |  | 70.5 µM (inactive) | 14.7 µM (inactive) | 28.1 µM (inactive) | 16.7 µM (inactive) | 96.4 µM (inactive) | 64.9 µM (inactive) | 22.3 µM (inactive) | 34.2 µM (inactive) | > 100 µM (inactive) | 88.1 µM (inactive) | 31.5 µM (inactive) | > 100 µM (inactive) | 41.7 µM (inactive) | 25.8 µM (inactive)
COc1ccc(-n2c(CCCC(=O)O)nc3c2C(=O)c2ccccc2C3=O)cc1 | > 100 µM (inactive) | 71.3 µM (inactive) | 8.79 µM (inactive) | > 100 µM (inactive) | 36.3 µM (inactive) | 92 µM (inactive) | 84.7 µM (inactive) | 54.8 µM (inactive) | 26.4 µM (inactive) | 15.2 µM (inactive) | 93.1 µM (inactive) | 25.8 µM (inactive) |  | > 100 µM (inactive) | 54.6 µM (inactive) | 66.8 µM (inactive) | > 100 µM (inactive) | > 100 µM (inactive) | 89.5 µM (inactive)
CCOC(=O)CCc1c(C)c2ccc(O)cc2oc1=O | > 100 µM (inactive) | > 100 µM (inactive) | > 100 µM (inactive) | > 100 µM (inactive) | > 100 µM (inactive) | > 100 µM (inactive) | > 100 µM (inactive) | > 100 µM (inactive) | > 100 µM (inactive) | > 100 µM (inactive) | > 100 µM (inactive) | > 100 µM (inactive) | > 100 µM (inactive) |  | > 100 µM (inactive) | > 100 µM (inactive) | > 100 µM (inactive) | > 100 µM (inactive) | > 100 µM (inactive)
O=C1Nc2ccccc2/C1=N/NC(=S)Nc1ccc([N+](=O)[O-])cc1 | 6.9 µM (inactive) | 6.84 µM (inactive) | 14.4 µM (inactive) | 6.07 µM (inactive) | 1.53 µM (inactive) | 14.8 µM (inactive) | 11.3 µM (inactive) | 2.94 µM (inactive) | 6.19 µM (inactive) | 5.28 µM (inactive) | 2.51 µM (inactive) | 12.5 µM (inactive) | 10.4 µM (inactive) | 4.76 µM (inactive) | 16.9 µM (inactive) | 4.72 µM (inactive) | 10 µM (inactive) | 5.85 µM (inactive) | 13.9 µM (inactive)
CCOP(=O)(CCC(O)CNc1nc(N)nc(Cl)c1/N=N/c1ccc(Cl)cc1)OCC (centres undefined) | 14.5 µM (inactive) | 7 µM (inactive) | 7.38 µM (inactive) | 2.96 µM (inactive) | 5.75 µM (inactive) | 14.2 µM (inactive) | 13.3 µM (inactive) | 8.67 µM (inactive) | 13.2 µM (inactive) | 5.2 µM (inactive) | 11.1 µM (inactive) | 8.99 µM (inactive) | 12.7 µM (inactive) | 17.7 µM (inactive) | 17.2 µM (inactive) | 7.87 µM (inactive) | 14.8 µM (inactive) | 11 µM (inactive) | 4.5 µM (inactive)
CO[C@]12S[C@@H]3CCCC[C@@]31C(C)(C)C(=O)N2c1ccccc1 | 67.3 µM (inactive) | 37.4 µM (inactive) | 27.4 µM (inactive) | 48.5 µM (inactive) | 13.5 µM (inactive) | 55.3 µM (inactive) | 51.2 µM (inactive) | 32.6 µM (inactive) | 33.7 µM (inactive) | > 100 µM (inactive) | 33 µM (inactive) | 27.6 µM (inactive) | 20.5 µM (inactive) | 25.8 µM (inactive) | 18.4 µM (inactive) | 28.5 µM (inactive) | 55.5 µM (inactive) | 26.6 µM (inactive) | 51.5 µM (inactive)
Cc1cc(O)c2c(=O)c3ccccc3[nH]c2c1 | 29.4 µM (inactive) | 21.5 µM (inactive) | 24.8 µM (inactive) | 11.8 µM (inactive) | 24.1 µM (inactive) | 35.2 µM (inactive) | 37.3 µM (inactive) | 18.8 µM (inactive) | 27.4 µM (inactive) | 32.7 µM (inactive) | 14.9 µM (inactive) | 3.56 µM (inactive) | 14.7 µM (inactive) | 52.8 µM (inactive) | 32.5 µM (inactive) | 16 µM (inactive) | 49.2 µM (inactive) | 40.8 µM (inactive) | 29.2 µM (inactive)
O=[N+]([O-])c1ccc(-n2nc3ccc4c(no[n+]4[O-])c3[n+]2[O-])c([N+](=O)[O-])c1 | 16 µM (inactive) | 2.45 µM (inactive) | 2.67 µM (inactive) | 2.42 µM (inactive) | 0.938 µM (active) | 5.56 µM (inactive) | 3.3 µM (inactive) | 1.77 µM (inactive) | 2.71 µM (inactive) | 2.45 µM (inactive) | 5.55 µM (inactive) | 1.72 µM (inactive) | 2.79 µM (inactive) | 9.51 µM (inactive) | 2.56 µM (inactive) | 1.91 µM (inactive) | 2.86 µM (inactive) | 2.77 µM (inactive) | 8.81 µM (inactive)
CC(CCC(=O)O)[C@H]1CCC2[C@H]3C(CC(=O)[C@@]21C)[C@@]1(C)CCC(O)C[C@H]1C[C@@H]3O (some centres undefined) | > 100 µM (inactive) | > 100 µM (inactive) | > 100 µM (inactive) | > 100 µM (inactive) | > 100 µM (inactive) | > 100 µM (inactive) | > 100 µM (inactive) | > 100 µM (inactive) | > 100 µM (inactive) | > 100 µM (inactive) | > 100 µM (inactive) | > 100 µM (inactive) |  |  | > 100 µM (inactive) | > 100 µM (inactive) |  | > 100 µM (inactive) | > 100 µM (inactive)
COc1ccc(-c2cc(=O)c3c(O)cc(O)cc3o2)cc1OC | > 100 µM (inactive) | 35.5 µM (inactive) | 17.9 µM (inactive) |  | 41.8 µM (inactive) | 57 µM (inactive) | > 100 µM (inactive) | 61.8 µM (inactive) | > 100 µM (inactive) | > 100 µM (inactive) | 44.7 µM (inactive) | 16.7 µM (inactive) | 23 µM (inactive) | 47.4 µM (inactive) | 59.6 µM (inactive) | 9.2 µM (inactive) | > 100 µM (inactive) | 30 µM (inactive) | 4.69 µM (inactive)
NC(=O)/C=c1/c2ccccc2n2nc3ccccc3c12 | 31.7 µM (inactive) | 13.6 µM (inactive) | 29.9 µM (inactive) | 20.1 µM (inactive) | 3.56 µM (inactive) | 37.8 µM (inactive) | 17 µM (inactive) | 4.78 µM (inactive) | 16 µM (inactive) | 21.9 µM (inactive) | 25.8 µM (inactive) | 14.1 µM (inactive) | 35.6 µM (inactive) | 16.3 µM (inactive) | 19.1 µM (inactive) | 2.68 µM (inactive) | 23.3 µM (inactive) | 12.9 µM (inactive) | 
COc1ccc(C2C=C(c3ccc4c(c3)OCO4)Oc3c2c(=O)oc2ccccc32)cc1OC (centres undefined) | 1.05 µM (active) | 0.627 µM (active) | 3.18 µM (inactive) | 0.425 µM (active) | 0.406 µM (active) | 0.417 µM (active) | 0.506 µM (active) | 0.593 µM (active) | 0.152 µM (active) | 0.366 µM (active) | 0.406 µM (active) | 0.303 µM (active) | 0.324 µM (active) | 0.372 µM (active) | 1.36 µM (inactive) | 0.236 µM (active) |  | 0.413 µM (active) | 0.344 µM (active)
COC1CN(C)/C(=N\c2cccc3ccccc23)S1 (centres undefined) | > 10 µM (inactive) | > 10 µM (inactive) | > 10 µM (inactive) | > 10 µM (inactive) | > 10 µM (inactive) | > 10 µM (inactive) | > 10 µM (inactive) | > 10 µM (inactive) | > 10 µM (inactive) | > 10 µM (inactive) |  | > 10 µM (inactive) | > 10 µM (inactive) | > 10 µM (inactive) | > 10 µM (inactive) | > 10 µM (inactive) | > 10 µM (inactive) | > 10 µM (inactive) | > 10 µM (inactive)
